Reference: PubChem BioAssay AID330 (DTP/NCI, 2004)
Values joined by “and” are separate entries in the source; they are usually repeats but may differ in a detail not shown here. Identical values can stand only once. Inconclusive results and toxic doses are left out. Rule for the calls: active = survival T/C of 150% or more; inactive = T/C below 125% in these data. Peptide text beside a SMILES is read from it. * marks the point of attachment. Cbz = O=C(OCc1ccccc1)*; Bn = c1ccc(C*)cc1

Test system: P388 leukemia ip, CD2F1 mice, survival T/C
Test: NCI In Vivo Anticancer Drug Screen. Data for tumor model P388 Leukemia (intraperitoneal) in CD2F1 (CDF1) mice
Conditions: endpoint: median survival time, higher = longer survival
How it was run: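 Mice carrying the transplanted tumor received test compound or vehicle. Survival was recorded in each group, and the value is the treated-group measurement divided by that of the vehicle-treated control group.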

[1] = dose: 50.0 mg/kg/injection, schedule: Q01DX005 (ip), vehicle: Klucel (hydroxypropylcellulose) (HPC)
[2] = dose: 100.0 mg/kg/injection, schedule: Q01DX005 (ip), vehicle: Klucel (hydroxypropylcellulose) (HPC)
[3] = dose: 200.0 mg/kg/injection, schedule: Q01DX005 (ip), vehicle: Klucel (hydroxypropylcellulose) (HPC)
[4] = dose: 100.0 mg/kg/injection, schedule: Q01DX009 (ip), vehicle: saline
[5] = dose: 200.0 mg/kg/injection, schedule: Q01DX009 (ip), vehicle: saline
[6] = dose: 60.0 mg/kg/injection, schedule: Q01DX005 (ip), vehicle: saline
[7] = dose: 120.0 mg/kg/injection, schedule: Q01DX005 (ip), vehicle: saline
[8] = dose: 50.0 mg/kg/injection, schedule: Q01DX009 (ip), vehicle: Klucel (hydroxypropylcellulose) (HPC)
[9] = dose: 100.0 mg/kg/injection, schedule: Q01DX009 (ip), vehicle: Klucel (hydroxypropylcellulose) (HPC)
[10] = dose: 200.0 mg/kg/injection, schedule: Q01DX009 (ip), vehicle: Klucel (hydroxypropylcellulose) (HPC)
[11] = dose: 50.0 mg/kg/injection, schedule: Q01DX009 (ip), vehicle: saline with Tween-80
[12] = dose: 100.0 mg/kg/injection, schedule: Q01DX009 (ip), vehicle: saline with Tween-80
[13] = dose: 200.0 mg/kg/injection, schedule: Q01DX009 (ip), vehicle: saline with Tween-80
[14] = dose: 50.0 mg/kg/injection, schedule: Q01DX005 (ip), vehicle: saline with Tween-80
[15] = dose: 100.0 mg/kg/injection, schedule: Q01DX005 (ip), vehicle: saline with Tween-80
[16] = dose: 200.0 mg/kg/injection, schedule: Q01DX005 (ip), vehicle: saline with Tween-80
[17] = dose: 60.0 mg/kg/injection, schedule: Q01DX005 (ip), vehicle: saline with Tween-80
[18] = dose: 120.0 mg/kg/injection, schedule: Q01DX005 (ip), vehicle: saline with Tween-80
[19] = dose: 240.0 mg/kg/injection, schedule: Q01DX005 (ip), vehicle: saline with Tween-80

Measured: T/C

COc1ccc(/C=C/CC2Cc3cc4c(cc3OC2c2ccc(OC)cc2)OCO4)cc1 (stereo unspecified)
inactive: dose: 3.75 mg/kg/injection, schedule: Q01DX005 (ip), vehicle: saline with Tween-80 93 % of control | dose: 7.5 mg/kg/injection, schedule: Q01DX005 (ip), vehicle: saline with Tween-80 90 % of control

Nc1nc2c(c(=O)[nH]1)CN(CCCN1CCN(CCCN3CNc4nc(N)[nH]c(=O)c4C3)CC1)CN2
inactive: [1] 94 % of control | [2] 99 % of control | [3] 91 % of control

CC(Br)C(=O)NC(Cc1ccccc1)C(=O)O (stereo unspecified)
inactive: [4] 99 % of control | [5] 103 % of control | dose: 400.0 mg/kg/injection, schedule: Q01DX009 (ip), vehicle: saline 89 % of control

COC(=O)C1(C2CCCCCCCCCCC2=O)NC(=S)NC(=O)C1C#N (stereo unspecified)
inactive: [6] 96 % of control | [7] 92 % of control | dose: 240.0 mg/kg/injection, schedule: Q01DX005 (ip), vehicle: saline 92 % of control

CCOC(=O)c1ccc(N2C(=O)OC(C)(C)C2=O)cc1
inactive: [1] 103 % of control | [2] 97 % of control | [3] 101 % of control

CSCNC(=S)Nc1ccc(Cl)cc1
inactive: [8] 94 % of control

NNC(=O)CNc1ccccc1F
inactive: dose: 15.0 mg/kg/injection, schedule: Q01DX005 (ip), vehicle: saline 97 % of control | dose: 30.0 mg/kg/injection, schedule: Q01DX005 (ip), vehicle: saline 95 % of control | [6] 91 % of control and 97 % of control | [7] 97 % of control

CC1=C(C/C=C(\C)CCCC(C)CCCC(C)CCCC(C)C)C(=O)c2ccccc2C1=O (stereo unspecified)
inactive: dose: 12.5 mg/kg/injection, schedule: Q01DX009 (ip), vehicle: olive oil, sesame oil, peanut oil 102 % of control | dose: 25.0 mg/kg/injection, schedule: Q01DX009 (ip), vehicle: olive oil, sesame oil, peanut oil 105 % of control | dose: 50.0 mg/kg/injection, schedule: Q01DX001 (ip), vehicle: olive oil, sesame oil, peanut oil 92 % of control | dose: 50.0 mg/kg/injection, schedule: Q01DX009 (ip), vehicle: olive oil, sesame oil, peanut oil 101 % of control | dose: 100.0 mg/kg/injection, schedule: Q01DX001 (ip), vehicle: olive oil, sesame oil, peanut oil 99 % of control | dose: 100.0 mg/kg/injection, schedule: Q01DX009 (ip), vehicle: olive oil, sesame oil, peanut oil 100 % of control | dose: 200.0 mg/kg/injection, schedule: Q01DX001 (ip), vehicle: olive oil, sesame oil, peanut oil 99 % of control | dose: 200.0 mg/kg/injection, schedule: Q01DX009 (ip), vehicle: olive oil, sesame oil, peanut oil 101 % of control

CC(C)C(NC(=O)C(CSCc1ccccc1)NC(=O)OCc1ccccc1)C(=O)O (stereo unspecified) (Cbz-Cys(Bn)-Val-OH; configuration not given here)
inactive: [1] 97 % of control | [2] 88 % of control

C=C1CC[C@H]2C(C)=CC[C@H]3C(=C)C(=O)O[C@@H]3[C@@H]12
inactive: dose: 5.0 mg/kg/injection, schedule: Q01DX009 (ip), vehicle: saline with Tween-80 90 % of control | dose: 10.0 mg/kg/injection, schedule: Q01DX009 (ip), vehicle: saline with Tween-80 91 % of control | dose: 20.0 mg/kg/injection, schedule: Q01DX009 (ip), vehicle: saline with Tween-80 97 % of control | dose: 40.0 mg/kg/injection, schedule: Q01DX009 (ip), vehicle: saline with Tween-80 95 % of control | dose: 100.0 mg/kg/injection, schedule: Q04DX002 (ip), vehicle: saline with Tween-80 107 % of control | dose: 200.0 mg/kg/injection, schedule: Q04DX002 (ip), vehicle: saline with Tween-80 112 % of control | dose: 400.0 mg/kg/injection, schedule: Q04DX002 (ip), vehicle: saline with Tween-80 102 % of control

Cc1cccc(N(CCO)CCC#N)c1
inactive: dose: 50.0 mg/kg/injection, schedule: Q01DX005 (ip), vehicle: distilled water + Tween-80 + alcohol 102 % of control | dose: 100.0 mg/kg/injection, schedule: Q01DX005 (ip), vehicle: distilled water + Tween-80 + alcohol 101 % of control | dose: 200.0 mg/kg/injection, schedule: Q01DX005 (ip), vehicle: distilled water + Tween-80 + alcohol 94 % of control

Clc1cccc(NN=Nc2ccccc2)c1
inactive: [8] 104 % of control | [9] 96 % of control | [10] 103 % of control

CCOC(=O)Nc1nc2cc(C(=O)OC)n(C)c2s1
inactive: [11] 95 % of control | [12] 86 % of control | [13] 88 % of control

CCN1C(=O)CCN(S(=O)(=O)c2ccc(-n3nc(C)cc3C)cc2)C1=S
inactive: [14] 99 % of control | [15] 95 % of control | [16] 103 % of control

CCOC(=O)C(Cc1cc2c(n1C)CCCC2)(NC(C)=O)C(=O)OCC
inactive: dose: 25.0 mg/kg/injection, schedule: Q01DX005 (ip), vehicle: Klucel (hydroxypropylcellulose) (HPC) 98 % of control | [1] 96 % of control | [2] 98 % of control | [3] 100 % of control

O=C1NCCCC1(c1ccccc1)c1ccccc1
inactive: dose: 50.0 mg/kg/injection, schedule: Q01DX009 (ip), vehicle: saline 98 % of control | [4] 102 % of control | [5] 97 % of control

CCOC(OCC)(c1ccccc1)N(C)C
inactive: [17] 92 % of control | [18] 100 % of control | [19] 104 % of control

CSC(=S)c1ccc(O)c2ccccc12
inactive: [11] 114 % of control | [12] 114 % of control | [13] 105 % of control

Cc1cc(C2(c3cc(C)c(O)c(C)c3)OC(=O)c3ccccc32)cc(C)c1O
inactive: [8] 105 % of control | [9] 99 % of control | [10] 103 % of control

CCOC(=O)Nc1cc(NCC(=O)c2ccc(Cl)cc2)c([N+](=O)[O-])c(N)n1
inactive: dose: 50.0 mg/kg/injection, schedule: Q01DX001 (ip), vehicle: saline with Tween-80 92 % of control | dose: 100.0 mg/kg/injection, schedule: Q01DX001 (ip), vehicle: saline with Tween-80 90 % of control | dose: 200.0 mg/kg/injection, schedule: Q01DX001 (ip), vehicle: saline with Tween-80 88 % of control

O=c1ccc2ccc(OC3OC(CO)C(O)C(O)C3O)cc2o1 (stereo unspecified)
inactive: dose: 1.0 mg/kg/injection, schedule: Q01DX009 (ip), vehicle: saline with Tween-80 106 % of control | dose: 2.0 mg/kg/injection, schedule: Q01DX009 (ip), vehicle: saline with Tween-80 100 % of control | dose: 4.0 mg/kg/injection, schedule: Q01DX009 (ip), vehicle: saline with Tween-80 104 % of control

O=c1[nH]c(=O)c2nc(-c3ccc4c(c3)OCO4)cnc2[nH]1
inactive: dose: 100.0 mg/kg/injection, schedule: Q04DX003 (ip), vehicle: lactic acid 93 % of control | dose: 200.0 mg/kg/injection, schedule: Q04DX003 (ip), vehicle: lactic acid 87 % of control

CN(CCN(C)C(=S)SCc1ccccc1)C(=S)SCc1ccccc1
inactive: dose: 6.25 mg/kg/injection, schedule: Q01DX009 (ip), vehicle: Klucel (hydroxypropylcellulose) (HPC) 100 % of control | dose: 12.5 mg/kg/injection, schedule: Q01DX009 (ip), vehicle: Klucel (hydroxypropylcellulose) (HPC) 116 % of control | dose: 25.0 mg/kg/injection, schedule: Q01DX009 (ip), vehicle: Klucel (hydroxypropylcellulose) (HPC) 105 % of control

CC(=O)OC1CCC2(C)C3CCC4(C)C(=CCC5(C(=O)O)CCC(C)(C)CC45)C3(C)CCC2C1(C)C (stereo unspecified)
inactive: dose: 0.25 mg/kg/injection, schedule: Q01DX009 (ip), vehicle: saline + Tween-80 + alcohol 97 % of control | dose: 0.5 mg/kg/injection, schedule: Q01DX009 (ip), vehicle: saline + Tween-80 + alcohol 101 % of control | dose: 1.0 mg/kg/injection, schedule: Q01DX009 (ip), vehicle: saline + Tween-80 + alcohol 106 % of control | dose: 2.0 mg/kg/injection, schedule: Q01DX009 (ip), vehicle: saline + Tween-80 + alcohol 97 % of control | dose: 4.0 mg/kg/injection, schedule: Q01DX009 (ip), vehicle: saline + Tween-80 + alcohol 106 % of control

O=C(Nc1c(Cl)cccc1Cl)Nc1c(Cl)cccc1Cl
inactive: [17] 92 % of control | [18] 92 % of control | [19] 94 % of control

CC1CC(O)C(=O)C2(C)C1CC1OC(=O)CC3C(C)C(=O)C(O)C2C13 (stereo unspecified)
inactive: [14] 100 % of control | [15] 104 % of control | [16] 99 % of control
